Molecules are shown by their SMILES. pIC50: −log10 of the molar value. A value given as a limit tells only on which side of the number the result lay.

For assay [1], the target named is T1, Gamma-secretase subunit PEN-2 (Homo sapiens, UniProt Q9NZ42). The experiment in a line: Compound required for inhibition of gamma-secretase-mediated formation of Abeta1-40 polypeptide. It is filed as functional.
In assay [2] the target is T1, Gamma-secretase subunit PEN-2. Nature of the assay: Compound required for inhibition of gamma-secretase-mediated formation of Abeta1-42 polypeptide. It is filed as functional.
Assay [3] shares this target. Nature of the assay: Inhibitory concentration against gamma-secretase was determined.

T1 sequence (Q9NZ42 whole entry): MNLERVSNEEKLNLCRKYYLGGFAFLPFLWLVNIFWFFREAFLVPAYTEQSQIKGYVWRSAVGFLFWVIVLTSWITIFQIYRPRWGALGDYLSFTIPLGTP

`CC[C@H](C)[C@H](NC(=O)[C@@H](NC(=O)[C@H](Cc1ccccc1)C[C@@H](O)[C@H](Cc1ccccc1)NC(=O)OC(C)(C)C)C(C)C)C(N)=O`: the values for the ED50 in assay [1] and in assay [2] were 32 µM and 35 µM, respectively.

As for `CC(C)C[C@H](NC(=O)/C(=C/C[C@H](Cc1ccccc1)NC(=O)OC(C)(C)C)Cc1ccccc1)C(=O)N[C@@H](Cc1ccccc1)C(N)=O`, the ED50 in assay [1] and in assay [2] was greater than 10 µM throughout.

Regarding `CCC(C)[C@H](NC(=O)[C@@H](NC(=O)[C@@H](C[C@@H](O[Si](C)(C)C(C)(C)C)[C@H](C)NC(=O)OC(C)(C)C)[C@H](C)O[Si](C)(C)C(C)(C)C)C(C)C)C(N)=O` (stereo partly specified), the ED50 in assay [1] and in assay [2] was greater than 10 µM each time.

With `CC(C)C[C@H](NC(=O)[C@H](Cc1ccccc1)C[C@@H](O)[C@H](Cc1ccccc1)NC(=O)OC(C)(C)C)C(=O)N[C@@H](Cc1ccccc1)C(N)=O`, the ED50 in assay [1] was found to be 0.036 µM; in assay [2], 0.014 µM. In addition, the pIC50 in assay [3] is 6.52.

Consider `CCC(C)[C@H](NC(=O)[C@@H](NC(=O)[C@@H](C[C@@H](O[Si](C)(C)C(C)(C)C)[C@H](C)NC(=O)OC(C)(C)C)[C@@H](C)O[Si](C)(C)C(C)(C)C)C(C)C)C(N)=O` (stereo partly specified), for which the ED50 in assay [1] and in assay [2] was greater than 10 µM throughout.

Turning to `CC(C)C[C@H](NC(=O)C(CC[C@H](Cc1ccccc1)NC(=O)OC(C)(C)C)Cc1ccccc1)C(=O)N[C@@H](Cc1ccccc1)C(N)=O` (stereo partly specified), the ED50 in assay [1] and in assay [2] was greater than 10 µM in each case.

For `CCC(C)C(C[C@@H](O[Si](C)(C)C(C)(C)C)[C@@H](NC(=O)OC(C)(C)C)C(C)C)C(=O)N[C@@H](C)C(=O)N[C@H](C(N)=O)C(C)O` (stereo partly specified), the ED50 in assay [1] and in assay [2] was greater than 10 µM in each case.

For `CCC(C)[C@H](NC(=O)[C@@H](NC(=O)[C@H](C[C@@H](O[Si](C)(C)C(C)(C)C)[C@H](C)NC(=O)OC(C)(C)C)C(C)O[Si](C)(C)C(C)(C)C)C(C)C)C(N)=O` (stereo partly specified), the ED50 in assay [1] and in assay [2] was greater than 10 µM each time.

`CC(NC(=O)[C@H](Cc1ccccc1)C[C@@H](O)[C@H](Cc1ccccc1)NC(=O)OC(C)(C)C)C(=O)N[C@H](C(N)=O)[C@H](C)O` (single isomer, unassigned): the values for the ED50 in assay [1] and in assay [2] were 732 µM and 230 µM, respectively.

Regarding `CC(C)C[C@H](NC(=O)[C@H](CN)C[C@@H](O)[C@H](Cc1ccccc1)NC(=O)OC(C)(C)C)C(=O)N[C@@H](Cc1ccccc1)C(N)=O`, the ED50 in assay [1] and in assay [2] was greater than 10 µM throughout.

The values are drawn from ChEMBL document CHEMBL1136418, “Synthesis and gamma-secretase activity of APP substrate-based hydroxyethylene dipeptide isosteres” (Bioorg Med Chem Lett, 2003).
